In patent US20250084036A1, “COMPOUND, ALDEHYDE DEHYDROGENASE 2 ACTIVATOR, PHARMACEUTICAL COMPOSITION, AND THERAPEUTIC AND/OR PROPHYLACTIC DRUG” (Alchemedicine, Inc., priority 2022, published 2025):

Legend:
[1] = target: T1, human recombinant ALDH2 enzyme (Homo sapiens, UniProt P05091); experiment: Test Example 1-1: ALDH2 activation effect (acetaldehyde oxidation rate, PicoProbe kit); type: biochemical; details: ALDH2 2 μg/mL, 180 min measurement
T1 construct: purchased Abcam ab87415
T1 sequence (P05091 18-517): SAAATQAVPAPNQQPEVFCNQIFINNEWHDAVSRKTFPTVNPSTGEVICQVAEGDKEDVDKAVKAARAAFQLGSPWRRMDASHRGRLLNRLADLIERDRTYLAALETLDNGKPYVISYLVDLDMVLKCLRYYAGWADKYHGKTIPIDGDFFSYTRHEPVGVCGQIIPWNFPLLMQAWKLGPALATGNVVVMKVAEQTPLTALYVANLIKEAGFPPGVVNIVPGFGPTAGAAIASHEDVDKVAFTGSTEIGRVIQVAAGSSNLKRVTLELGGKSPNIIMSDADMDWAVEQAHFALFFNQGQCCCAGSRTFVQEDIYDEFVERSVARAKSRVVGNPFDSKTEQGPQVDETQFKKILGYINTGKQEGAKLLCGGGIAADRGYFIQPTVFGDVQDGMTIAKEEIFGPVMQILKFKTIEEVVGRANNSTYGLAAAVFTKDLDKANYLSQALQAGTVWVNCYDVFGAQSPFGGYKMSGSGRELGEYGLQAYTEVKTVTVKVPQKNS
Procedure: The activation effect of each test compound on the acetaldehyde oxidation rate of ALDH2 was measured with the following method. A test was conducted by using a commercially available PicoProbe™ Aldehyde dehydrogenase Activity Assay Kit (manufactured by BioVision Inc.) with reference to an instruction attached to the product under the following conditions. To each well of a 384-well plate, the following (1) to (3) were sequentially added with a pipette: • (1) 10 μL of solution obtained by dissolving and diluting a human recombinant ALDH2 enzyme (manufactured by Abcam, product number: ab87415) with ALDH assay Buffer (final concentration: 2 μg/mL); • (2) 10 μL of 30 μM or 90 μM test compound solution (with 3% DMSO) prepared by using ALDH assay Buffer; and • (3) 10 μL of Reaction mix composed with ratio of […] of ALDH assay Buffer, 0.6 μL of PicoProbe, 0.3 μL of Substrate Mix, and 1.5 μL of Acetaldehyde.
Before addition of (3), incubation was performed at room temperature for 5 minutes. After addition of (3), fluorescence intensity was measured at room temperature every 2.5 minutes over a period of 180 minutes by using an EnSight (manufactured by PerkinElmer Inc.) to determine the oxidation rate. Wavelengths of 535 nm and 587 nm were used for fluorescence intensities of excitation and emission, respectively.

[2] = Test Example 2: Metabolic stability with mouse hepatic microsomes; type: in vitro ADME; details: after 30 minutes, 37° C., NADPH; also: tested at 0.99 µM
Procedure: Metabolic stability in mouse hepatic microsomes was evaluated with the following method.
• (1) Mouse hepatic microsomes: 20 mg/mL • (2) Test compound: 1.1 mM DMSO solution • (3) Potassium phosphate buffer solution: 66.7 mM (pH 7.4) • (4) NADPH solution: 10 mM in potassium phosphate buffer solution • (5) Quenching solution: 0.5% formic acid-acetonitrile solution with warfarin as internal standard substance
Into a propylene tube, 971.5 μL of the potassium phosphate buffer solution and 27.5 μL of the mouse hepatic microsomes were put, and suspended. Thereto, 1 μL of a test compound was added, and 180 μL was taken from this mixture and transferred into another tube. The mixture was preincubated at 37° C. for 5 minutes, and 20 μL of the NADPH solution (for the case with an incubation time of 30 minutes) or 20 μL of the potassium phosphate buffer solution (for the case with an incubation time of 0 minutes) was then added thereto. After incubation, 200 μL of the quenching solution was added to terminate the reaction. Subsequently, centrifugation was performed at 3220×g for 20 minutes, and the concentration of the unchanged form of the test compound in 200 μL of the supernatant was measured with LC-MS/MS. On the basis of the peak area obtained for the unchanged form, the residual rate (%) of the unchanged form was calculated as that for the case with an incubation time of 0 minutes was assumed as 100%.

[3] = Test Example 3: Metabolic stability with human hepatic microsomes; type: in vitro ADME; details: human hepatic microsomes 0.1 mg protein/mL, 0.1 μmol/L test compound, after 30 minutes, 37° C.
Procedure: For the compounds of Examples 1 to 9, which had been confirmed to have stability in the mouse hepatic microsome test, metabolic stability with human hepatic microsomes was measured. The specific method is as follows. • (1) Fifty microliter-portions were taken from 0.2 μmol/L test compound diluted with β-NADPH solution. • (2) Fifty microliters of 0.2 mg protein/mL human hepatic microsome solution was added to each (except for a sample with a reaction time of 0 minutes). • (3) Incubation was performed with shaking at 37° C. for 30 minutes (concentration in reaction sample: 0.1 μmol/L test compound, 0.1 mg protein/mL human hepatic microsome) • (4) After incubation, 400 μL of methanol was added to terminate the reaction. • (5) To the sample with a reaction time of 0 minutes, 50 μL of 0.2 mg protein/mL hepatic microsome solution was added. • (6) Each of the samples from (4) and (5) was left to stand at −20° C. for 30 minutes or longer, and then centrifuged at 4° C. and 3,000 rpm for approximately 10 minutes. • (7) The supernatant was subjected to measurement with LC/MS/MS, and, on the basis of the peak area obtained for the unchanged form, the residual rate (%) of the unchanged form was calculated as that for the case with an incubation time of 0 minutes was assumed as 100%.

[4] = tested on: pain induced by carrageenan, C57BL/6J mice; experiment: Test Example 5: Suppression effect on pain induced by carrageenan (von Frey escape score); type: in vivo, mouse; details: mean ± SE, n=8
Procedure: This experiment was carried out with reference to Science Translational Medicine 6, 251ra118 (2014). Animals used were 7-week-old male C57BL/6J mice (The Jackson Laboratory Japan, Inc.). To induce mechanical allodynia to a sole part, carrageenan was subcutaneously administered to the sole of the left hind limb of each mouse. The escape response against mechanical stimulation 180 minutes after the induction was measured by using a von Frey filament with bending force (0.16 grams) to the sole surface of the left hind limb in the ascending direction. The mouse was stimulated in the vertical direction for 6 seconds until the filament bent, and the escape response of the mouse was rated with three-grade scoring (0: no response or startle response (displacing the foot without ascending), 1: ascending the foot, 2: licking or shaking the foot). Stimulation was performed 10 times, and the total value of 10 scores (escape score) was calculated.
The compound (Example 3) was dissolved in DMSO/PEG400 (volume ratio: 1:1), and 2, 6, or 20 mg/kg (no compound for a Vehicle group) of the compound was subcutaneously administered to the back of the neck three times in total at the same dose: 15 minutes before injection of carrageenan, 30 minutes after injection of carrageenan, and 150 minutes after injection of carrageenan, each at a dose of 5 mL/kg in liquid volume. A 1.5% carrageenan solution was prepared with physiological saline, and subcutaneously administered to the sole of the left hind limb at 7 μL/body.
In significance test, multiple comparison by the Steel's test was carried out for comparison between the Vehicle group and Example 3 group, where the significance level was set to 5%, and calculation was separately performed for lower than 5% (p<0.05) and for lower than 1% (p<0.01). The commercially available statistical program SAS SYSTEM (SAS Institute Japan Ltd.) was used for the significance test.

acetaldehyde oxidation rate (no test compound = 100%) ([1]; test compound 10 μM): 188% | acetaldehyde oxidation rate (no test compound = 100%) ([1]; test compound 30 μM): 226% | Residual rate (%) of unchanged form [2]: 93% | Residual rate (%) of unchanged form [3]: 93%
Compound: COc1ncc(CNC(=O)c2cc(-c3ncccc3CO)ccc2F)cc1F [Example 3, 2-Fluoro-N-((5-fluoro-6-methoxypyridin-3-yl)methyl)-5-(3-(hydroxymethyl)pyridin-2-yl)benzamide]
Pain-related total score ([4]; 2 mg/kg s.c. three times, 180 min after induction with carrageenan, p<0.01 vs Vehicle (9.4 ± 0.5)): 5.3 ± 0.3 | Pain-related total score ([4]; 2 mg/kg s.c. three times, Pre (before induction)): 1.8 ± 0.5 | Pain-related total score ([4]; 6 mg/kg s.c. three times, 180 min after induction with carrageenan, p<0.01 vs Vehicle (9.4 ± 0.5)): 4.6 ± 0.3 | Pain-related total score ([4]; 6 mg/kg s.c. three times, Pre (before induction)): 1.8 ± 0.5 | Pain-related total score ([4]; 20 mg/kg s.c. three times, 180 min after induction with carrageenan, p<0.01 vs Vehicle (9.4 ± 0.5)): 3.9 ± 0.3 | Pain-related total score ([4]; 20 mg/kg s.c. three times, Pre (before induction)): 1.8 ± 0.4
